Measurements as given in article doi:10.1101/2024.08.25.609621 (bioRxiv, 2024).
Like-named read-outs stand apart in the source and are kept apart here.

Assays:
[1] = biological target: SARS-CoV-2 NSP3 macrodomain (Mac1) (Severe acute respiratory syndrome coronavirus 2, UniProt P0DTD1); test: biochemical; type: binding
[2] = biological target: SARS-CoV-2 NSP3 macrodomain (Mac1), P43 crystal form (Severe acute respiratory syndrome coronavirus 2, UniProt P0DTD1); type: binding
[3] = Single dose, concentration 200 μM, read-out: SARS CoV-2 macrodomain HTRF assay: Average % competition
[4] = preliminary screen, compound at 200 μM, mean of 3-4 technical replicates, read-out: % competition in HTRF assay
[5] = ligand modeling in Mac1 crystal soak
[6] = SARS CoV-2 macrodomain HTRF assay
[7] = SARS CoV-2 macrodomain HTRF assay, read-out: Ki
[8] = stereoisomer(s) of ligand modeled in Mac1 crystal structure
[9] = Single dose, concentration 200 μM, read-out: Average % competition
[10] = ligand modeling in Mac1 crystal structure
[11] = dose-response, read-out: SARS CoV-2 macrodomain HTRF assay: IC50
[12] = dose-response, read-out: SARS CoV-2 macrodomain HTRF assay: Ki
[13] = from SARS CoV-2 macrodomain HTRF assay
[14] = stereoisomer(s) modeled in Mac1 crystal structure

SMILES: OCC1CC2(CCCCC2)CN1c1ncnc2[nH]ccc12 (stereo not drawn) [AVI-3727]
- inhibition at 200 µM [1, 3]: 67%
- inhibition at 200 µM [1, 4]: 67%
- Number of isomers bound [2, 5]: 1
- PanDDA run, TFA/DMSO background map: 1-BDC ([2]; soak concentration 10 mM): 0.25
- PanDDA run, TFA/DMSO background map: Hit ([2]; soak concentration 10 mM): TRUE

SMILES: CC(C)(C)[C@@H]1CCN(c2ncnc3[nH]ccc23)[C@H](CO)C1 [AVI-3722]
- inhibition at 200 µM [1, 3]: 22%
- inhibition at 200 µM [1, 4]: 22%
- Number of isomers bound [2, 5]: 1

SMILES: CC(CNC(=O)c1ccc2c(c1)CCC(=O)N2)C(=O)O (stereo not drawn) [AVI-328]
- Ligand efficiency (binding enery per heavy atom) [1, 6]: 0.25
- Ki [1, 7]: 210 µM
- IC50 ([1]; read-out: HTRF IC50): 220 µM
- Number of isomers bound [2, 5]: 2
- Isomers modeled [2, 8]: R,S

SMILES: O=C(O)C(F)(F)F.OC[C@@H]1CC2(CC2)CN1c1ncnc2[nH]ccc12 [AVI-3710]
- inhibition at 200 µM [1, 3]: 57%
- inhibition at 200 µM [1, 4]: 57%
- Number of isomers bound [2, 5]: 1
- PanDDA run, TFA/DMSO background map: 1-BDC ([2]; soak concentration 10 mM): 0.23
- PanDDA run, TFA/DMSO background map: Hit ([2]; soak concentration 10 mM): TRUE
- Isomers modeled [2, 8]: S,S

SMILES: CC1(C)CCC(CO)N(c2ncnc3[nH]ccc23)C1 (stereo not drawn) [AVI-3726]
- inhibition at 200 µM [1, 3]: 76%
- inhibition at 200 µM [1, 4]: 76%
- Number of isomers bound [2, 5]: 2
- Isomers modeled [2, 8]: R,R,S

SMILES: OCC(CC1CCCO1)Nc1ncnc2[nH]ccc12 (stereo not drawn) [AVI-3660]
- inhibition at 200 µM [1, 9]: 18%
- inhibition at 200 µM [1, 4]: 18%
- PanDDA run, TFA/DMSO background map: 1-BDC ([2]; crystal soak 10 mM): 0.17
- PanDDA run, TFA/DMSO background map: Hit ([2]; crystal soak 10 mM): TRUE
- Number of isomers bound [2, 5]: 1

SMILES: NC(=O)C1(O)CCN(c2ncnc3[nH]ccc23)C1 (stereo not drawn) [AVI-611]
- inhibition at 200 µM [1, 9]: 30%
- inhibition at 200 µM [1, 4]: 30%
- Number of isomers bound [2, 5]: 1
- Isomers modeled [2, 8]: S,S

SMILES: O=C1CCc2cc(C(=O)N3CC(C(=O)O)CCC34CCCC4)c(F)cc2N1 (stereo not drawn) [AVI-338]
- IC50 ([1]; Dose-response, SARS CoV-2 macrodomain HTRF assay, read-out: IC50): 800 µM
- Ligand efficiency (binding enery per heavy atom) [1, 6]: 0.16
- Ki [1, 7]: 740 µM
- Number of isomers bound [2, 10]: 1

SMILES: OCC(CC1CC1)Nc1ncnc2[nH]ccc12 (stereo not drawn) [AVI-3662]
- inhibition at 200 µM [1, 9]: 44%
- inhibition at 200 µM [1, 4]: 44%
- PanDDA run, TFA/DMSO background map: 1-BDC ([2]; crystal soak 10 mM): 0.09
- PanDDA run, TFA/DMSO background map: Hit ([2]; crystal soak 10 mM): TRUE
- Number of isomers bound [2, 5]: 1

SMILES: O=C(O)C(F)(F)F.OCC1(Nc2ncnc3[nH]ccc23)CCCC1 [AVI-3692]
- Ligand efficiency (binding enery per heavy atom) [1, 6]: 0.35
- IC50 ([1]; SARS CoV-2 macrodomain HTRF assay, dose-response, read-out: IC50): 49 µM
- Ki ([1]; SARS CoV-2 macrodomain HTRF assay, dose-response, read-out: Ki): 46 µM
- PanDDA run, TFA/DMSO background map: 1-BDC ([2]; crystal soak 10 mM): 0.11
- PanDDA run, TFA/DMSO background map: Hit ([2]; crystal soak 10 mM): TRUE
- Number of isomers bound [2, 5]: 1
- Isomers modeled [2, 8]: achiral

SMILES: OCC(Nc1ncnc2[nH]ccc12)C1CCCC1 (stereo not drawn) [AVI-3649]
- inhibition at 200 µM [1, 9]: 68%
- inhibition at 200 µM [1, 4]: 68%
- PanDDA run, TFA/DMSO background map: 1-BDC ([2]; crystal soak 10 mM): 0.11
- PanDDA run, TFA/DMSO background map: Hit ([2]; crystal soak 10 mM): TRUE
- Number of isomers bound [2, 5]: 1

SMILES: OCC(CC1OCCO1)Nc1ncnc2[nH]ccc12 (stereo not drawn) [AVI-3658]
- inhibition at 200 µM [1, 9]: 11%
- inhibition at 200 µM [1, 4]: 11%
- Number of isomers bound [2, 5]: 1

SMILES: CC1CCC(O)(CNc2ncnc3[nH]ccc23)CC1 (stereo not drawn) [AVI-4312]
- IC50 [1, 11]: 21 µM
- Ki [1, 12]: 20 µM
- Ligand efficiency (binding enery per heavy atom) [1, 13]: 0.34
- Number of isomers bound [2, 10]: 1
- Isomers modeled [2, 14]: rr

SMILES: OCC1CC2(CCC2)CN1c1ncnc2[nH]ccc12 (stereo not drawn) [AVI-3728]
- inhibition at 200 µM [1, 3]: 79%
- inhibition at 200 µM [1, 4]: 79%
- Number of isomers bound [2, 5]: 1
- PanDDA run, TFA/DMSO background map: 1-BDC ([2]; soak concentration 10 mM): 0.26
- PanDDA run, TFA/DMSO background map: Hit ([2]; soak concentration 10 mM): TRUE
- Isomers modeled [2, 8]: S,S

SMILES: CC1(C)CCN(c2ncnc3[nH]ccc23)C(CO)C1 (stereo not drawn) [AVI-5994]
- IC50 [1, 11]: 68 µM
- Ki [1, 12]: 63 µM
- Ligand efficiency (binding enery per heavy atom) [1, 13]: 0.31
- Number of isomers bound [2, 10]: 1
- Isomers modeled [2, 14]: S,S

SMILES: OC1(CNc2ncnc3[nH]ccc23)CCCCC1 [AVI-6217]
- IC50 [1, 11]: 42 µM
- Ki [1, 12]: 39 µM
- Ligand efficiency (binding enery per heavy atom) [1, 13]: 0.34
- Number of isomers bound [2, 10]: 1
- Isomers modeled [2, 14]: achiral

SMILES: Cc1ccccc1CC(CO)Nc1ncnc2[nH]ccc12 (stereo not drawn) [AVI-3674]
- inhibition at 200 µM [1, 9]: 32%
- PanDDA run, TFA/DMSO background map: 1-BDC ([2]; crystal soak 10 mM): 0.15
- PanDDA run, TFA/DMSO background map: Hit ([2]; crystal soak 10 mM): TRUE
- Number of isomers bound [2, 5]: 1

SMILES: O=S1(=O)CCCC(O)(CNc2ncnc3[nH]ccc23)C1 (stereo not drawn) [AVI-4317]
- fold less potent compared to the AVI-3761 parent ([1]; HTRF IC50): ~ 4 fold
- Ki [1, 12]: 100 µM
- Ligand efficiency (binding enery per heavy atom) [1, 13]: 0.28
- IC50 ([1]; read-out: HTRF IC50): 110 µM
- Number of isomers bound [2, 10]: 1

SMILES: CN1CCN(c2ncnc3[nH]ccc23)C(CO)C1 (stereo not drawn) [AVI-3721]
- inhibition at 200 µM [1, 3]: 11%
- inhibition at 200 µM [1, 4]: 11%
- Number of isomers bound [2, 5]: 1
- Isomers modeled [2, 8]: R,R

SMILES: CC(O)C(C)Nc1ncnc2[nH]ccc12 (stereo not drawn) [AVI-5158]
- inhibition at 200 µM [1, 9]: 32%
- inhibition at 200 µM [1, 4]: 32%
- Number of isomers bound [2, 10]: 2
- Isomers modeled [2, 14]: RS,RR

SMILES: Cc1c[nH]c2ncnc(NCC3(O)CCCCC3)c12 [AVI-3761, 1-(((5-methyl-7H-pyrrolo[2,3-d]pyrimidin-4-yl)amino)methyl)cyclohexan-1-ol]
- Ki [1]: 12 µM
- IC50 ([1]; HTRF IC50): 13 µM
- Isomers modeled [2]: achiral
- Number of isomers bound [2]: 1

SMILES: OC1(CNc2ncnc3[nH]ccc23)CCCC(C(F)(F)F)C1 (stereo not drawn) [AVI-4309]
- IC50 [1, 11]: 150 µM
- Ki [1, 12]: 140 µM
- Ligand efficiency (binding enery per heavy atom) [1, 13]: 0.24
- Number of isomers bound [2, 10]: 1

SMILES: OCC(Nc1ncnc2[nH]ccc12)C1CCC1 (stereo not drawn) [AVI-3638]
- inhibition at 200 µM [1, 9]: 77%
- inhibition at 200 µM [1, 4]: 77%
- PanDDA run, TFA/DMSO background map: 1-BDC ([2]; crystal soak 10 mM): 0.1
- PanDDA run, TFA/DMSO background map: Hit ([2]; crystal soak 10 mM): TRUE
- Number of isomers bound [2, 5]: 1

SMILES: CCC(O)[C@H]1CCCN1c1ncnc2[nH]ccc12 (stereo partly drawn) [AVI-3666]
- fold decrease in binding affinity compared to AVI-4062 [1]: ~ 4 fold
- Ligand efficiency (binding enery per heavy atom) [1, 13]: 0.34
- Number of isomers bound [2, 5]: 1

SMILES: OCC1CC2(CCCC2)CN1c1ncnc2[nH]ccc12 (stereo not drawn) [AVI-3708]
- IC50 [1, 11]: 27 µM
- Ki [1, 12]: 25 µM
- Ligand efficiency (binding enery per heavy atom) [1, 13]: 0.32
- Number of isomers bound [2, 5]: 1
